# Values joined by “and” are separate entries in the source; they are usually repeats but may differ in a detail not shown here. Identical values can stand only once. Like-named read-outs stand apart in the source and are kept apart here.
# What was measured:
# [1] = cited from earlier work
# [2] = pH of solutions before freeze-drying and after reconstitution; assay type: physicochemical
# [3] = DOSY NMR study of complex formation with SBE-β-CD; assay type: physicochemical; details: for diffusion coefficient D: DOSY, D2O, 25 °C, ceftobiprole/maleic acid 1:25 without SBE-β-CD at 7.5 mM ceftobiprole
# From the text: Another approach to investigate the complex formation using NMR is the use of Diffusion-Ordered SpectroscopY (DOSY). Based on chemical shifts, each individual signal can be assigned to a proper species present in the analysed sample solution, thus allowing us to determine its diffusion coefficient D . The value of D depends on the hydrodynamic radius r of the analysed species, temperature T , and on the dynamic viscosity η of the solution:(1) D=kBT/6π η r
# Here, kB stands for the Boltzmann constant. The solutions used for the DOSY measurements should be appropriately diluted to avoid the viscosity-related issues. Moreover, to properly compare the DOSY spectra between the samples with and without SBE-β-CD, it must be checked whether the viscosities of these two samples are similar.
# It is a generally accepted practice to approximate that D is the same for the CD in a complex and for free CD. Assuming a quick exchange regime, to calculate the molar fraction MFCB of ceftobiprole molecules being complexed in relation to all ceftobiprole molecules in the studied solution, one can take advantage of the equation stating that DCB−CD is the weighted average of DCB and DCD :(2) DCB−CD=MFCBDCB+(1−MFCB)DCD
# The complexation equilibrium is dynamic, and can be interpreted as a statistical ceftobiprole molecule spending MFCB proportion of time in a complex, and (1−MFCB) fraction of time alone, resulting in overall DCB−CD being the weighted average.
# In these studies, 16 increments consisting of 64 scans were performed. A relaxation time of 2 s, a diffusion time of 200 ms, a total diffusion encoding gradient duration of 2 ms, and 16 values of the diffusion encoding gradient incremented from 3 to 25 G/cm were applied. Processing was carried out using the OpenVnmrJ 3.1A software with the option of correction for spatially non-uniform pulsed field gradients.
# [4] = Solubility of ceftobiprole determined by HPLC; assay type: physicochemical
# Experimental: The samples were stored in a freezer, taking into account the recommended storage conditions for ceftobiprole. The stability of the prepared samples was tested at defined intervals using the same methodology. To evaluate potential changes in solubility due to physical transformations such as phase transitions or recrystallization, an identical volume of water was added as in the initial solubility test. Subsequently, the reconstituted samples were analysed by HPLC to determine the precise solubility and to monitor any increase in the concentration of DPs content, thereby assessing both physical and chemical stability.
# The LC-MS/MS experiments were performed using the same equipment and methodology as described in [14], with one modification: to acquire a full mass spectrum of SBE-β-CD, the range of detected m/z was broadened to 2500.
# [5] = set-up: method as in PMID 38068968; details: theoretical calculations, depending on the software used; cited from earlier work
smiles,measurement,setting,value
Nc1nc(/C(=N/O)C(=O)N[C@@H]2C(=O)N3C(C(=O)O)=C(/C=C4\CCN([C@@H]5CCNC5)C4=O)CS[C@H]23)ns1 [ceftobiprole],t90,[1]; 0.01 M NaOH,≈ 10 min
same,t90 (time for 10% decrease in initial concentration),[1]; 0.1 M HCl at room temperature,approximately 22 h
same,t90,[1]; 3% H2O2,≈ 25 min
same,t90,[1]; UV irradiation at 366 nm,≈ 1 h
same,decrease of degradation rate constant in the presence of 10 mM SBE-β-CD,[1]; acidic degradation in 0.1 M HCl at 25 °C,2.5 fold
same,decrease of degradation rate constant in the presence of 10 mM SBE-β-CD,[1]; thermal degradation in water at 45 °C,2.5 fold
same,pH of the dissolved sample,[2]; freeze-dried in 0.1 M HCOOH without SBE-β-CD,approximately 5
same,diffusion coefficient D,[3],≈ 3.16 × 10^−10 m^2/s
same,molar fraction MFCB of ceftobiprole molecules being complexed,"[3]; cCB = 1.917 mM, cCD = 7.667 mM",≈ 0.35
same,molar fraction MFCB,"[3]; calculated for cCB = 22.5 mM, cCD = 90 mM (1:25:4), K = 77 M^−1",0.845
same,molar fraction MFCB,"[3]; calculated for molar ratio 1:25:2, cCD = 45 mM",0.693
same,equilibrium constant K of complex with SBE-β-CD,"[3]; semi-quantitative, from DOSY",77 M⁻¹
same,ceftobiprole molecules in the complex with SBE-β-CD,"[3]; solution near saturation, 1:25:4",85%
same,solubility,"[4]; 0.1 M aqueous formic acid (HCOOH), solubility of ceftobiprole before use of 0.1 M formic acid and SBE-β-CD",~100 µg/mL
same,fold higher solubility after freeze-drying in 0.1 M HCOOH,[4]; freeze-dried (2.1 mg/mL) vs unprocessed in 0.1 M HCOOH ([…]),15 fold
same,solubility,"[4]; water, freeze-dried analogue without SBE-β-CD, reconstituted in water, read-out: Solubility of Ceftobiprole for Freeze-Dried Samples in a Preliminary Study Without SBE-β-CD",2100 µg/mL
same,solubility,"[4]; water, freeze-dried from water without acid, read-out: solubility after freeze-drying of pure aqueous solutions",120 µg/mL
same,solubility,"[4]; water, without freeze-drying in acidic environment, read-out: water solubility of ceftobiprole",50 µg/mL
same,pKa of the carboxyl group of ceftobiprole,[5],3.0 and 3.2
O=C(O)CC(O)(CC(=O)O)C(=O)O [citric acid],pH of the solution intended for freeze-drying,[2]; 20-fold molar excess of citric acid in relation to ceftobiprole,2.9
same,pH of the solution intended for freeze-drying,[2]; 50-fold molar excess of citric acid in relation to ceftobiprole,2.7
same,pH of the solution intended for freeze-drying,[2]; 100-fold molar excess of citric acid in relation to ceftobiprole,2.5
O=C(O)/C=C\C(=O)O [maleic acid],diffusion coefficient D,[3],7.11 × 10^−10 m^2/s

# Reference: article PMC12249915, “Development of a Cyclodextrin-Based Drug Delivery System to Improve the Physicochemical Properties of Ceftobiprole as a Model Antibiotic” (International Journal of Molecular Sciences, 2025)
